Measurements published in patent US20250144067A1, “PERSONALIZED STARVATION THERAPY FOR CANCER” (Faeth Therapeutics, Inc., priority 2021, published 2025).
Structures can show the parent of a compound that is named as a salt. Where two headings read alike, the source gives them in different places.

What was measured:
[1] = tested on: NCI-H292 lung cancer cells; assay: FDA drug screening, complete media vs cholesterol-free media without statin (TABLE 1); type: cell-based, human
[2] = tested on: NCI-H292 lung cancer cells; assay: FDA drug screening, complete media vs cholesterol-free media with simvastatin (TABLE 2); type: cell-based, human
[3] = NCI-H292 cells, cholesterol-free media with simvastatin 0.04 μM, FDA drug library screen (TABLE 2)
[4] = NCI-H292 cells, complete media, FDA drug library screen (TABLE 2)
[5] = complete media minus cholesterol-free media + simvastatin (0.04 μM), >0 enhanced anti-cancer activity, about 0 neutral, <0 antagonist
[6] = Complete minus Cholesterol-free, greater than 0 enhanced anti-cancer activity, about 0 neutral, below 0 antagonist
[7] = NCI-H292 cells, FDA drug library screen, cholesterol-free media without statin
[8] = NCI-H292 cells, FDA drug library screen, complete media
[9] = NCI-H292 cells, FDA drug library screen, cholesterol-free media with simvastatin 0.04 μM
[10] = complete media vs cholesterol-free media + simvastatin (0.04 μM), >0 enhanced anti-cancer activity, about 0 neutral, <0 antagonist
[11] = Complete minus Cholesterol-free, >0 enhanced anti-cancer activity, about 0 neutral, <0 antagonist
[12] = NCI-H292 cells, cholesterol-free media without statin, FDA drug library screen
[13] = NCI-H292 cells, complete media, FDA drug library screen
[14] = NCI-H292 cells, cholesterol-free media without statin
[15] = complete vs cholesterol-free media, greater than 0 enhanced anti-cancer activity, about 0 neutral, below 0 antagonists
[16] = complete vs cholesterol-free media, >0 enhanced anti-cancer activity, about 0 neutral, <0 antagonist
[17] = NCI-H292 cells, FDA library drug in cholesterol-free media with simvastatin 0.04 μM
[18] = NCI-H292 cells, FDA library drug in complete media
[19] = complete media minus cholesterol-free media + simvastatin, >0 enhanced anti-cancer activity, about 0 neutral, <0 antagonist

`CC(C)(Oc1ccc(CCNC(=O)c2ccc(Cl)cc2)cc1)C(=O)O` [Bezafibrate] gave a Difference ([1]; Complete minus Cholesterol-free, greater than 0 enhanced anti-cancer activity, about 0 neutral, below 0 antagonists) of −0.60, a Cholesterol-free ([1]; NCI-H292 cells in cholesterol-free media without statin) of 1.652 and a Complete ([1]; NCI-H292 cells in complete media) of 1.053. The “Cholesterol-free media + simvastatin (0.04 μM)” value [2, 3] was 1.03, the “Complete Media” value [2, 4] was 1.024 and the Difference [2, 5] was −0.01.

`C[C@@H](O)[C@H]1C(=O)N2C(C(=O)[O-])=C(SC3Cn4cnc[n+]4C3)[C@H](C)[C@H]12` (stereo partly drawn) [Biapenem] gave a Difference [1, 6] of −0.11, a Cholesterol-free [1, 7] of 0.9795 and a Complete [1, 8] of 0.8733. The “Cholesterol-free media + simvastatin (0.04 μM)” value [2, 9] was 1.249, the “Complete Media” value [2, 8] was 1.117 and the Difference [2, 10] was −0.13.

`CC(O)(CS(=O)(=O)c1ccc(F)cc1)C(=O)Nc1ccc(C#N)c(C(F)(F)F)c1` (stereo not drawn) [Bicalutamide] was tested, and the Difference [1, 11] was 0.00, the Cholesterol-free [1, 12] was 1.018 and the Complete [1, 13] was 1.016. The “Cholesterol-free media + simvastatin (0.04 μM)” value [2, 9] was 1.219, the “Complete Media” value [2, 8] was 1.09 and the Difference [2, 10] was −0.13.

`O=C(NCc1c(F)cc(F)cc1F)c1cn2c(c(O)c1=O)C(=O)N1[C@H]3CC[C@H](C3)O[C@@H]1C2` [Bictegravir] gave a Cholesterol-free [1, 14] of 1.057, a Complete ([1]; NCI-H292 cells, complete media) of 0.7123 and a Difference [1, 15] of −0.34. For the same compound, the “Cholesterol-free media + simvastatin (0.04 μM)” value ([2]; NCI-H292 cells, drug in cholesterol-free media with simvastatin 0.04 μM) was 1.109, the “Complete Media” value ([2]; NCI-H292 cells, drug in complete media) was 0.9083 and the Difference [2, 10] was −0.20.

Work on `COC(=O)c1cc(OC)c2c(c1-c1c(CO)cc(OC)c3c1OCO3)OCO2` [Bicyclol] yielded a Cholesterol-free [1, 12] of 0.552, a Complete [1, 13] of 0.7456 and a Difference [1, 16] of 0.19. The “Cholesterol-free media + simvastatin (0.04 μM)” value [2, 17] was 1.331, the “Complete Media” value [2, 18] was 1.025 and the Difference [2, 10] was −0.31.

Work on `COC(=O)c1cc(OC)c2c(c1-c1c(C(=O)OC)cc(OC)c3c1OCO3)OCO2` [Bifendate] yielded a Cholesterol-free [1, 14] of 1.494, a Complete ([1]; NCI-H292 cells, complete media) of 1.156 and a Difference ([1]; complete vs cholesterol-free media, […]) of −0.34. The “Cholesterol-free media + simvastatin (0.04 μM)” value [2, 9] was 1.269 and the Difference ([2]; complete media vs cholesterol-free media + simvastatin (0.04 μM), […]) was −0.10.

For `c1ccc(-c2ccc(C(c3ccccc3)n3ccnc3)cc2)cc1` (stereo not drawn) [Bifonazole], the Cholesterol-free [1, 14] was 1.572, the Complete ([1]; NCI-H292 cells, complete media) was 1.228 and the Difference [1, 15] was −0.34. The “Cholesterol-free media + simvastatin (0.04 μM)” value [2, 9] was 0.4379, the “Complete Media” value [2, 8] was 0.7844 and the Difference [2, 19] was 0.35.

For `CCOCCn1c(C2CCN(CCc3ccc(C(C)(C)C(=O)O)cc3)CC2)nc2ccccc21` [Bilastine], the Difference [1, 11] was −0.27, the Cholesterol-free [1, 14] was 1.435 and the “Cholesterol-free media + simvastatin (0.04 μM)” value [2, 9] was 1.167. The “Complete Media” value [2, 8] was 1.071 and the Difference [2, 10] was −0.10.

Compound `CCNC(=O)CCC/C=C\C[C@@H]1[C@@H](/C=C/[C@@H](O)CCc2ccccc2)[C@H](O)C[C@@H]1O` [Bimatoprost] has a Cholesterol-free [1, 14] of 1.545, a Complete ([1]; NCI-H292 cells, complete media) of 1.142 and a Difference [1, 15] of −0.40. The “Cholesterol-free media + simvastatin (0.04 μM)” value [2, 17] was 1.43, the “Complete Media” value [2, 18] was 0.9569 and the Difference [2, 10] was −0.47.

In the case of `Cn1cnc2c(F)c(Nc3ccc(Br)cc3F)c(C(=O)NOCCO)cc21` [Binimetinib], the Difference [1, 11] is reported as 0.01, the Cholesterol-free [1, 12] is reported as 0.1731 and the Complete [1, 13] is reported as 0.1825. The “Cholesterol-free media + simvastatin (0.04 μM)” value [2, 9] was 0.4887, the “Complete Media” value [2, 8] was 0.381 and the Difference [2, 10] was −0.11.

Work on `O=C(O)CCCC[C@@H]1SC[C@@H]2NC(=O)N[C@@H]21` [Biotin] yielded a Cholesterol-free [1] of 1.067, a Complete [1] of 0.6067 and a Difference [1] of −0.46. The “Cholesterol-free media + simvastatin (0.04 μM)” value [2] was 1.06, the “Complete Media” value [2] was 0.9767 and the Difference [2] was −0.08.

For `OC(CCN1CCCCC1)(c1ccccc1)C1CC2C=CC1C2` (stereo not drawn) [Biperiden (Hydrochloride)], the Cholesterol-free [1, 12] was 1.12, the Complete [1, 13] was 1.311 and the Difference [1, 16] was 0.19. For the same compound, the “Cholesterol-free media + simvastatin (0.04 μM)” value [2, 9] was 0.8257, the “Complete Media” value [2, 8] was 1.742 and the Difference [2, 19] was 0.92.

In the case of `CC(=O)Oc1ccc(C(c2ccc(OC(C)=O)cc2)c2ccccn2)cc1` [Bisacodyl], the Difference [1, 11] is reported as −0.04, the Cholesterol-free [1, 12] is reported as 0.799 and the Complete [1, 13] is reported as 0.7553. For the same compound, the “Cholesterol-free media + simvastatin (0.04 μM)” value [2, 3] was 0.934, the “Complete Media” value [2, 4] was 0.9483 and the Difference [2, 5] was 0.01.

`Oc1c(Cl)cc(Cl)cc1Sc1cc(Cl)cc(Cl)c1O` [Bithionol] was tested, and the Difference [1, 6] was −0.09, the Cholesterol-free [1, 7] was 0.9314 and the Complete [1, 8] was 0.8442. For the same compound, the “Cholesterol-free media + simvastatin (0.04 μM)” value [2, 17] was 2.228, the “Complete Media” value [2, 18] was 1.353 and the Difference [2, 10] was −0.88.

For `CCN1CCN(c2cc(-c3ccc(F)cc3)c3c(n2)CCCCCC3)CC1` [Blonanserin], the Difference [1, 11] was −0.06, the Cholesterol-free [1, 12] was 1.144 and the Complete [1, 13] was 1.088. For the same compound, the “Complete Media” value [2, 4] was 0.8939 and the Difference [2, 5] was −0.05.
